Source: US20180155757A1, “IDENTIFICATION OF BACTERIA THAT ARE RESISTANT TO CARBAPENEMS BY MEMBRANE IMPERVIOUSNESS” (BIOMÉRIEUX, priority 2015, published 2018)
Like-named read-outs stand apart in the source and are kept apart here.

Columns and labels:
Assay in all cases: Etest MIC of indicator carbapenems on MH II agar without/with PMBN
Assay type in all cases: cell-based
[1] = system: E. cloacae 1008074 (VIM producer)
Protocol: (§1) The determinations of antibiotic MIC were carried out on solid culture media with the Etest® method. To do this, Etest® strips (bioMérieux, France) were used: • Etest® Imipenem IM 32, and • Etest® Ertapenem ETP 32, and also solid culture media, differing from one another by virtue of their non-inhibitory concentrations of PMBN.
(§2) These solid culture media are prepared in Petri dishes (0=145 mm; V=50 ml) on a base of MH II Agar (Becton Dickinson®, United States), more or less supplemented with PMBN. The PMBN concentrations range from 0 up to concentrations equivalent to one fifth of the MIC of PMBN (⅕ MICPMBN).
(§3) Using a swab and the Retro C80™ rota-plater (bioMérieux, France), the culture media were inoculated with the bacteria, originating from an inoculum of 0.5 McFarland, prepared in 0.85% NaCl solution from colonies subcultured the day before on MH II agar.
(§4) The various Etest® strips are then deposited on the surface of the culture media. After 16 to 20 hours of incubation at 35° C., the MICS were read.
(§5) By way of indicator carbapenems according to the invention, in addition to imipenem (IM) and ertapenem (ETP), meropenem (MP) was also tested. Like the other two antibiotics, meropenem was used in the form of Etest® strips (Etest® Meropenem MP 32 from the company bioMérieux, France).
(§6) The methods used to prepare the new culture media and to carry out the antibiotic-sensitivity tests are identical to those described above.

[2] = system: Enterobacter aerogenes EA 27 (porin−); conditions: Klebsiella aerogenes, E. aerogenes EA 27 (porin−), read-out: MIC
Protocol: as §1, §2, §3, §4, §5, §6

[3] = system: Enterobacter aerogenes EA 5 (porin−); conditions: Klebsiella aerogenes, E. aerogenes EA 5 (porin−)
Protocol: as §1, §2, §3, §4, §5, §6

[4] = system: K. pneumoniae 1108003 (KPC-3 producer)
Protocol: as §1, §2, §3, §4, §5, §6

E. aerogenes 1204048 = E. aerogenes 1204048 (membrane impermeability), Table 4a, in µg/mL
Protocol: as §1, §2, §3, §4
(§7) To do this, imipenem and ertapenem were used as indicator carbapenems. Non-inhibitory concentrations of PMBN, equivalent to concentrations of one tenth ( 1/10), one eighth (⅛) and one fifth (⅕) of the MIC of PMBN, were applied.
(§8) In the light of the MICPMBN values previously identified, very predominantly much higher than 300 μg/ml, the following standard concentrations were retained and applied to the bacterial strains to be tested: 50, 100, 150, 200 and 300 μg/ml.
as §5, §6

E. aerogenes 9203076 = system: E. aerogenes 9203076
Protocol: as §1, §2, §3, §4, §7, §8, §5, §6

E. aerogenes 9306071 = E. aerogenes 9306071 (membrane impermeability), Table 4a
Protocol: as §1, §2, §3, §4, §7, §8, §5, §6

E. cloacae 9402034 = E. cloacae 9402034 (membrane impermeability), Table 4a
Protocol: as §1, §2, §3, §4, §7, §8, §5, §6

E. coli 1204043 = system: E. coli 1204043
Protocol: as §1, §2, §3, §4, §7, §8, §5, §6

K. pneumoniae 1002015 = conditions: Klebsiella pneumoniae, 1002015, K. pneumoniae 1002015 (porin−), Table 4, read-out: MIC
Protocol: as §1, §2, §3, §4, §7, §8, §5, §6

K. pneumoniae 1204034 = system: K. pneumoniae 1204034
Protocol: as §1, §2, §3, §4, §7, §8, §5, §6

C[C@@H](O)[C@H]1C(=O)N2C(C(=O)O)=C(S[C@@H]3CN[C@H](C(=O)N(C)C)C3)[C@H](C)[C@H]12 [MP, meropenem]
MIC ([1]; [PMBN] 0, Table 4a): 0.38 µg/mL | MIC ([1]; [PMBN] 100, Table 4a): 1.5 µg/mL | MIC ([1]; [PMBN] 200, Table 4a): 1 µg/mL | MIC ([1]; [PMBN] 300, Table 4a): 1.5 µg/mL | MIC ([2]; [PMBN] 0, Table 4): 4 µg/mL | MIC ([2]; [PMBN] 50 μg/ml): 0.75 µg/mL | MIC ([2]; [PMBN] 100 μg/ml): 0.5 µg/mL | MIC ([2]; [PMBN] 150 μg/ml): 0.19 µg/mL | MIC ([2]; [PMBN] 200 μg/ml): 0.094 µg/mL | MIC ([3]; [PMBN] 0, Table 4): 3 µg/mL | MIC ([3]; [PMBN] 50 μg/ml): 2 µg/mL | MIC ([3]; [PMBN] 100 μg/ml): 1.5 µg/mL | MIC ([3]; [PMBN] 150 μg/ml): 0.75 µg/mL | MIC ([3]; [PMBN] 200 μg/ml): 0.75 µg/mL | MIC ([4]; [PMBN] 0, Table 4a): 6 µg/mL | MIC ([4]; [PMBN] 100, Table 4a): > 32 µg/mL | MIC ([4]; [PMBN] 200, Table 4a): > 32 µg/mL | MIC ([4]; [PMBN] 300, Table 4a): 4 µg/mL | MIC (E. aerogenes 1204048; [PMBN] 0): >32 | MIC (E. aerogenes 1204048; [PMBN] 100): 1.5 | MIC (E. aerogenes 1204048; [PMBN] 200): 1 | MIC (E. aerogenes 1204048; [PMBN] 300): 0.5-1 | MIC (E. aerogenes 9203076; E. aerogenes 9203076 (membrane impermeability), [PMBN] 0, Table 4a, in µg/mL): 4 | MIC (E. aerogenes 9203076; E. aerogenes 9203076 (membrane impermeability), [PMBN] 100, Table 4a, in µg/mL): 2 | MIC (E. aerogenes 9203076; E. aerogenes 9203076 (membrane impermeability), [PMBN] 200, Table 4a, in µg/mL): 1.5 | MIC (E. aerogenes 9203076; E. aerogenes 9203076 (membrane impermeability), [PMBN] 300, Table 4a, in µg/mL): 0.5-0.75 | MIC (E. aerogenes 9203076; Klebsiella aerogenes, 9203076, E. aerogenes 9203076 (porin−), [PMBN] 0, Table 4, read-out: MIC): 4 µg/mL | MIC (E. aerogenes 9203076; Klebsiella aerogenes, 9203076, E. aerogenes 9203076 (porin−), [PMBN] 150 μg/ml, Table 4, read-out: MIC): 0.5 µg/mL | MIC (E. aerogenes 9203076; Klebsiella aerogenes, 9203076, E. aerogenes 9203076 (porin−), [PMBN] 200 μg/ml, Table 4, read-out: MIC): 0.5 µg/mL | MIC (E. aerogenes 9306071; [PMBN] 0): 4 µg/mL | MIC (E. aerogenes 9306071; [PMBN] 100): 1.5 µg/mL | MIC (E. aerogenes 9306071; [PMBN] 200): 1.5 µg/mL | MIC (E. aerogenes 9306071; [PMBN] 300): 0.5 µg/mL | MIC (E. cloacae 9402034; [PMBN] 0): 16 µg/mL | MIC (E. cloacae 9402034; [PMBN] 100): 2 µg/mL | MIC (E. cloacae 9402034; [PMBN] 200): 2 µg/mL | MIC (E. cloacae 9402034; [PMBN] 300): 3 µg/mL | MIC (E. coli 1204043; E. coli 1204043 (membrane impermeability), [PMBN] 0, Table 4a, in µg/mL): 4 | MIC (E. coli 1204043; E. coli 1204043 (membrane impermeability), [PMBN] 100, Table 4a, in µg/mL): 0.75 | MIC (E. coli 1204043; E. coli 1204043 (membrane impermeability), [PMBN] 200, Table 4a, in µg/mL): 0.38 | MIC (E. coli 1204043; E. coli 1204043 (membrane impermeability), [PMBN] 300, Table 4a, in µg/mL): 0.19 | MIC (E. coli 1204043; Escherichia coli, 1204043, E. coli 1204043 (porin−), [PMBN] 0, Table 4, read-out: MIC): 3 µg/mL | MIC (E. coli 1204043; Escherichia coli, 1204043, E. coli 1204043 (porin−), [PMBN] 150 μg/ml, Table 4, read-out: MIC): 0.064 µg/mL | MIC (E. coli 1204043; Escherichia coli, 1204043, E. coli 1204043 (porin−), [PMBN] 200 μg/ml, Table 4, read-out: MIC): 0.008 µg/mL | MIC (K. pneumoniae 1002015; [PMBN] 0): 2 µg/mL | MIC (K. pneumoniae 1002015; [PMBN] 150 μg/ml): 0.19 µg/mL | MIC (K. pneumoniae 1002015; [PMBN] 200 μg/ml): 0.19 µg/mL | MIC (K. pneumoniae 1204034; K. pneumoniae 1204034 (membrane impermeability), [PMBN] 0, Table 4a): 16 µg/mL | MIC (K. pneumoniae 1204034; K. pneumoniae 1204034 (membrane impermeability), [PMBN] 100, Table 4a): 1.5 µg/mL | MIC (K. pneumoniae 1204034; K. pneumoniae 1204034 (membrane impermeability), [PMBN] 200, Table 4a): 0.75 µg/mL | MIC (K. pneumoniae 1204034; K. pneumoniae 1204034 (membrane impermeability), [PMBN] 300, Table 4a): 0.38 µg/mL | MIC (K. pneumoniae 1204034; Klebsiella pneumoniae, 1204034, K. pneumoniae 1204034 (porin−), [PMBN] 0, Table 4, read-out: MIC): 12 µg/mL | MIC (K. pneumoniae 1204034; Klebsiella pneumoniae, 1204034, K. pneumoniae 1204034 (porin−), [PMBN] 150 μg/ml, Table 4, read-out: MIC): 0.5 µg/mL | MIC (K. pneumoniae 1204034; Klebsiella pneumoniae, 1204034, K. pneumoniae 1204034 (porin−), [PMBN] 200 μg/ml, Table 4, read-out: MIC): 0.25 µg/mL
